In ChEMBL document CHEMBL5505980, “Pyrazolamide derivatives inhibit α-Synuclein aggregation, disaggregate preformed fibers, and reduce inclusion formation in neuron cells” (Eur J Med Chem, 2024):

Tests used:
H4 [1] = assay: Cytotoxicity against human H4 cells assessed as cell viability at 1 to 1000 uM incubated for 24 hrs by CCK-8 assay; assay type: toxicity, cell-based; conditions: h4, 24 h, dose 1-1000 µM
[2] = Cytotoxicity against human H4 cells assessed as cell viability at 30 uM incubated for 24 hrs by CCK-8 assay relative to control; assay type: toxicity, cell-based; conditions: read-out: Activity
[3] = Apparent permeability across apical to basolateral side in MDCKII-MDR1 cells at 10 uM by LC-MS/MS analysis; assay type: ADME, cell-based, Canis lupus familiaris; conditions: dog, MDCK-MDR1
[4] = Apparent permeability across basolateral side to apical in MDCKII-MDR1 cells at 10 uM by LC-MS/MS analysis; assay type: ADME, cell-based, Canis lupus familiaris; conditions: dog, MDCK-MDR1
H4 [5] = assay: Cytotoxicity against human H4 cells assessed as cell viability at 300 uM incubated for 24 hrs by CCK-8 assay relative to control; assay type: toxicity, cell-based; conditions: h4, 24 h
Alpha-synuclein = Alpha-synuclein (Homo sapiens, UniProt P37840); assay: Inhibition of alpha-synuclein (unknown origin) aggregation inhibition ratio by measuring relative fluorescence intensity measured after 3 days by ThT F1 based assay relative to control

Compound	Papp A→B at 10 µM [3]	Papp B→A at 10 µM [4]	Activity (H4 [1])	viability at 24 h, 30 µM [2]	Activity (H4 [5])	IC50 (Alpha-synuclein)
Cc1ccc(-c2cc(C(=O)Nc3cc(O)ccc3O)[nH]n2)cc1	2.26 ×10⁻⁶ cm/s	6.65 ×10⁻⁶ cm/s	Non-Toxic	74%	–	–
O=C(Nc1ccc(O)c(O)c1)c1cc(-c2ccc(C(F)(F)F)cc2)n[nH]1	4.2 ×10⁻⁶ cm/s	1.86 ×10⁻⁶ cm/s	Non-Toxic	95%	–	–
O=C(O[C@@H]1Cc2c(O)cc(O)cc2O[C@@H]1c1cc(O)c(O)c(O)c1)c1cc(O)c(O)c(O)c1 [EPIGALOCATECHIN GALLATE]	–	–	Non-Toxic	–	–	2580 nM

Second part, led by results:

Papp A→B at 10 µM [3]	Papp B→A at 10 µM [4]	Compound	Activity (H4 [1])	viability at 24 h, 30 µM [2]	Activity (H4 [5])	IC50 (Alpha-synuclein)
29.6 ×10⁻⁶ cm/s	12 ×10⁻⁶ cm/s	O=C(Nc1cc(O)ccc1O)c1cc(-c2ccc(Br)cc2)n[nH]1	Non-Toxic	95%	Non-Toxic	–
49.7 ×10⁻⁶ cm/s	19.3 ×10⁻⁶ cm/s	O=C(Nc1cc(O)ccc1O)c1cc(-c2ccc(C(F)(F)F)cc2)n[nH]1	Non-Toxic	95%	–	–
